Data as given in patent US3978055A, “Arylamino pyrimidinic derivatives” (priority 1973, dated 1976).

How the values were obtained:
Shay ulcers = assay: Gastric ulcers provoked by tying of the pylorus (Shay ulcers); assay type: in vivo; conditions: intraduodenal; rat, 50mg/kg/i.d.; read-out: Percentage reduction of shay ulcers
Experimental: The derivatives of formula I, administered by oral means, reduce the extent of gastric ulcers provoked in a rat by tying of the pylorus (Shay ulcers)
Table IV indicated, by way of example, the results obtained by the administration of 50mg/kg/i.d. of different derivatives of formula I.

[1] = Lethal doses / percentage mortality; assay type: in vivo; conditions: in vivo, mouse; for LD50: po, Table IX, read-out: DE 50 (second column; DL 50) (converted)
From the text: As a result of a comparison between the pharmacologically active doses mentioned above, and the lethal doses listed in the following table XIV, the difference between the doses is sufficiently great to permit the utilisation of the derivatives of formula I in therapeutics.

[2] = system: local oedema caused by sub-plantar injection of carraghenine; assay: Sub-plantar oedema caused by carraghenine (antiinflammatory); assay type: in vivo, rat; conditions: rat, read-out: Percentage reduction of subplantar oedema; for inhibition in vivo at 100 mg/kg: 100 mg/kg/PO
From the text: These properties are shown by a diminution of the local oedema caused by the sub-plantar injection of a phlogogenic agent, such as carraghenine, in the rat following the oral administration of derivatives of formula I.

[3] = system: number of explorations in the escape enclosure; assay: Number of explorations in the escape enclosure (sedative properties); assay type: in vivo, mouse; conditions: po; mouse, escape enclosure, 100mg/kg/p.o.; read-out: Percentage diminution of number of explorations
volume of urine emitted = assay: Augmentation of urinary elimination (diuretic properties); assay type: in vivo; conditions: po; mouse, 25mg/kg/p.o., 6 hours; read-out: Percentage augmentation of urinary elimination
Experimental: The derivatives of formula I, administered by oral means to the mouse, simultaneously with a volume of 1ml of an isotonic solution of sodium chloride per 25g of the corporeal weight of the mouse, are capable of provoking an augmentation of the volume of urine emitted by reference to control animals, the volume being measured for 6 hours following administration.
The following Table VII indicates, by way of example the percentage augmentation of urinary elimination resulting from the administration of 25mg/kg/p.o. of different derivatives of formula I.

[4] = system: painful stretchings caused by phenylbenzoquinone; assay: Analgesic test with phenylbenzoquinone (painful stretchings); assay type: in vivo; conditions: Mus musculus, po; for ED50: read-out: 105 DE (DE 50)
[5] = system: arterial pressure of anaesthetised rat; assay: Lowering of arterial pressure of anaesthetised rat (hypotensive properties); assay type: in vivo; conditions: 1 mg/kg/i.v.; for Duration of effect: hypotensive effect
From the text: Administered by intraveinous means to an anaesthetised rat, the derivatives of formula I provoke a lowering of the arterial pressure.
By way of example, the following Table VIII mentions the results obtained by administration of different derivatives of formula I.

[6] = system: isolated heart of guinea-pig; assay: Augmentation of flow of coronary vessels of isolated heart (vasodilatatory); conditions: Cavia porcellus; 1 μg/ml; read-out: Percentage augmentation of flow of isolated heart of guinea-pig
Experimental: The derivatives of formula I are capable of augmenting the flow of the coronary vessels of this isolated heart of a guinea - pig, when said derivatives are added in the perfusion liquid of said organ.
The percentage augmentation of the flow of the isolated heart of the guinea - pig by adding different derivatives of formula I to the perfusion liquid are given by way of example in the following Table V.

[7] = read-out: Percentage of diminution of the number of painful stretchings

Row | SMILES | mortality ([1]; 2000 mg/kg, 2 000 mg/kg/PO) [%] | inhibition in vivo at 100 mg/kg [2] [%] | change in vivo at 25 mg/kg (volume of urine emitted) [%] | also measured
1 | COc1cc(-c2nc(C)cc(Nc3ccccc3C(=O)OCC3COC(C)(C)O3)n2)cc(OC)c1OC (stereo not shown) [71 510] | 0 | 40 |  | inhibition in vivo at 50 mg/kg (Shay ulcers): 35%; inhibition in vivo at 100 mg/kg [3]: 40%
2 | Cc1cc(Nc2ccc(OCCN3CCOCC3)cc2)nc(-c2cccc(Cl)c2)n1 [730 695] | 0 |  | 43 | inhibition in vivo at 100 mg/kg [4, 7]: 85%
3 | Cc1cc(Nc2ccc(OCCN3CCCCC3)cc2)nc(-c2cccc(F)c2)n1 [730 231] |  |  |  | inhibition in vivo at 50 mg/kg (Shay ulcers): 50%; mortality ([1]; 975 mg/kg/PO): ~50%; LD50 [1]: 975 mg/kg; ED50 [4]: 27 mg/kg
4 | Cc1cc(Nc2ccc(C(=O)N3CCCC3)cc2)nc(-c2ccc3c(c2)OCO3)n1 [72 623] | 0 |  | 85 | 
5 | Cc1cc(Nc2ccc(C(N)=O)cc2)nc(-c2cccc(C(F)(F)F)c2)n1 [72 432] | 0 | 45 | 200 | inhibition in vivo at 50 mg/kg (Shay ulcers): 35%; inhibition in vivo at 100 mg/kg [3]: 35%
6 | Cc1cc(Nc2ccc(CC(=O)O)cc2)nc(-c2cccc(F)c2)n1 [730 234] |  | 35 |  | mortality ([1]; 2 400 mg/kg/PO): ~50%; inhibition in vivo at 100 mg/kg [4, 7]: 55%
7 | Cc1cc(Nc2ccc(C(=O)N(C)C)cc2)nc(-c2ccc(Cl)cc2)n1 [72 327] | 0 | 35 | 85 | Percentage reduction of arterial pressure of anaesthetised rat [5]: 30%; Duration of effect [5]: 30 mn
8 | Cc1cc(Nc2ccc(OCCN(C)C)cc2)nc(-c2ccccc2)n1 [730 136] | 0 |  |  | inhibition in vivo at 100 mg/kg [4, 7]: 46%
9 | Cc1cc(Nc2ccc(C(=O)N3CCOCC3)cc2)nc(-c2ccc3c(c2)OCO3)n1 [72 621] | ~30 |  |  | inhibition in vivo at 50 mg/kg (Shay ulcers): 40%
10 | COc1cc(-c2nc(C)cc(Nc3ccc(C(N)=O)cc3)n2)cc(OC)c1OC [72 417] | 0 |  | 65 | inhibition in vivo at 50 mg/kg (Shay ulcers): 40%
11 | Cc1cc(Nc2ccc(OCCN3CCCCCC3)cc2)nc(-c2ccccc2)n1 [730 379] |  |  |  | mortality ([1]; 625 mg/kg/PO): ~50%
12 | Cc1cc(Nc2ccc(C(N)=O)cc2)nc(-c2cccc(F)c2)n1 [72 773] | ~20 | 40 | 110 | inhibition in vivo at 50 mg/kg (Shay ulcers): 40%; inhibition in vivo at 100 mg/kg [3]: 45%
13 | Cc1cc(Nc2ccccc2C(=O)OCC2COC(C)(C)O2)nc(-c2ccc3c(c2)OCO3)n1 (stereo not shown) [72 701] | 0 |  | 45 | inhibition in vivo at 100 mg/kg [4, 7]: 45%
14 | Cc1cc(Nc2ccc(OCCN3CCCCC3)cc2)nc(-c2ccccc2)n1 [730 221] |  |  |  | mortality ([1]; 520 mg/kg/PO): ~50%
15 | CCOC(=O)c1ccc(Nc2cc(C)nc(-c3ccc(Cl)cc3)n2)cc1 [72 283] | 0 | 40 |  | 
16 | Cc1cc(Nc2ccccc2C(=O)OCC2COC(C)(C)O2)nc(-c2cccc(C(F)(F)F)c2)n1 (stereo not shown) [72 495, N-[2-(3'trifluoromethylphenyl) -6-methyl-4-pyrimidyl](2",2" -dimethyldioxolan-4"-yl) methyl anthranilate] | 0 |  | 115 | 
17 | COc1cc(-c2nc(C)cc(Nc3ccc(C(=O)N4CCCCC4)cc3)n2)cc(OC)c1OC [72 317] | 0 | 35 |  | inhibition in vivo at 50 mg/kg (Shay ulcers): 40%

Row | SMILES | mortality ([1]; 2000 mg/kg, 2 000 mg/kg/PO) [%] | inhibition in vivo at 100 mg/kg [2] [%] | change in vivo at 25 mg/kg (volume of urine emitted) [%] | also measured
18 | COc1cc(-c2nc(C)cc(Nc3ccc(C(=O)N4CCCC4)cc3)n2)cc(OC)c1OC [72 271, 2-(3',4',5'-trimethoxyphenyl)-4-(parapyrrolidinocarbonylphenylamino) -6-methyl pyrimidino] | 0 | 35 |  | inhibition in vivo at 100 mg/kg [3]: 40%
19 | Cc1cc(Nc2ccc(OCCN(C)C)cc2)nc(-c2cccc(F)c2)n1 [730 224] | 0 |  |  | LD50 [1]: > 2000 mg/kg; ED50 [4]: 30 mg/kg
20 | COc1cc(-c2nc(C)cc(Nc3ccccc3C(N)=O)n2)cc(OC)c1OC [72 442] | 0 | 55 |  | Percentage reduction of arterial pressure of anaesthetised rat [5]: 30%; Duration of effect [5]: 20 mn; inhibition in vivo at 100 mg/kg [4, 7]: 70%; inhibition in vivo at 100 mg/kg [3]: 60%
21 | Cc1cc(Nc2ccc(OCCN3CCOCC3)cc2)nc(-c2ccc(N(C)C)cc2)n1 [740 140] | 0 |  |  | LD50 [1]: > 2000 mg/kg; Percentage reduction of arterial pressure of anaesthetised rat [5]: 40%; Duration of effect [5]: 30 mn; ED50 [4]: 33 mg/kg
22 | Cc1cc(Nc2ccc(OCCN3CCOCC3)cc2)nc(-c2ccc3c(c2)OCO3)n1 [730 731] | 0 |  | 37 | LD50 [1]: > 2000 mg/kg; Percentage reduction of arterial pressure of anaesthetised rat [5]: 29%; Duration of effect [5]: 30 mn; ED50 [4]: 27 mg/kg
23 | Cc1cc(Nc2ccc(C(=O)N3CCCCC3)cc2)nc(-c2ccc3c(c2)OCO3)n1 [72 687] | 0 |  |  | inhibition in vivo at 50 mg/kg (Shay ulcers): 40%
24 | Cc1cc(Nc2ccccc2C(N)=O)nc(-c2cccc(F)c2)n1 [72 783] | 0 |  | 80 | 
25 | CCOC(=O)c1ccc(Nc2cc(C)nc(-c3cccc(F)c3)n2)cc1 [72 778] | 0 |  |  | inhibition in vivo at 100 mg/kg [3]: 35%
26 | Cc1cc(Nc2ccccc2C(=O)OCC(O)CO)nc(-c2ccc3c(c2)OCO3)n1 (stereo not shown) [72 686] | 0 |  |  | inhibition in vivo at 130 mg/kg [4, 7]: 50%; inhibition in vivo at 25 mg/kg ([2]; 25 mg/kg/PO): 35%
27 | Cc1cc(Nc2ccc(C(=O)N3CCN(C)CC3)cc2)nc(-c2ccc(Cl)cc2)n1 [72 292] | 0 |  | 55 | 
28 | Cc1cc(Nc2ccc(OCCN3CCOCC3)cc2)nc(-c2ccc(Cl)cc2)n1 [730 732] | 0 |  |  | LD50 [1]: > 2000 mg/kg; ED50 [4]: 23 mg/kg
29 | Cc1cc(Nc2ccccc2C(=O)OCC2COC(C)(C)O2)nc(-c2cccc(F)c2)n1 (stereo not shown) [72 796] | 0 |  |  | activation at 1 µg/mL [6]: 60%
30 | COc1cc(-c2nc(C)cc(Nc3ccc(C(=O)N4CCN(C)CC4)cc3)n2)cc(OC)c1OC [72 462] | 0 | 35 |  | inhibition in vivo at 100 mg/kg [4, 7]: 40%
31 | Cc1cc(Nc2ccc(OCCN3CCCC3)cc2)nc(-c2cccc(C(F)(F)F)c2)n1 [730 243] |  | 50 |  | mortality ([1]; 1000 mg/kg, 1 000 mg/kg/PO): 0%
32 | COc1cc(-c2nc(C)cc(Nc3ccc(C(=O)N4CCOCC4)cc3)n2)cc(OC)c1OC [72 536] | 0 | 35 |  | inhibition in vivo at 100 mg/kg [3]: 75%
33 | Cc1cc(Nc2ccc(C(=O)N3CCOCC3)cc2)nc(-c2cccc(F)c2)n1 [72 754] | 0 |  | 50 | inhibition in vivo at 50 mg/kg (Shay ulcers): 40%
